The structures appear in SMILES notation.

For this experiment, the target named is T1, human PAH with the R408W mutation (Homo sapiens, UniProt P00439, R408W).
T1 construct: expressed in transfected cells
T1 sequence (P00439 1-452 R408W): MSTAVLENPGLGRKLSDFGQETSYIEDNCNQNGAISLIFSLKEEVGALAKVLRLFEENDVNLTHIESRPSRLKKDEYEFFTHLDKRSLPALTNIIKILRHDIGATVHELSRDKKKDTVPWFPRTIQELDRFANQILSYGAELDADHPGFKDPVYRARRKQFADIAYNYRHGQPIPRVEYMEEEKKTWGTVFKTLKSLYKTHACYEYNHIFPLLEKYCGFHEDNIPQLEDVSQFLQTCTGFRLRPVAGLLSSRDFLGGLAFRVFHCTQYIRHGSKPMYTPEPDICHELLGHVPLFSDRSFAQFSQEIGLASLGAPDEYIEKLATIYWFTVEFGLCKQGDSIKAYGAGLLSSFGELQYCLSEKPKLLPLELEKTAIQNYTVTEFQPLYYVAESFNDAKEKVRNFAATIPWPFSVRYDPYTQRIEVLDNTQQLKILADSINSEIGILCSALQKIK
Nature of the experiment: Cell Based Phenylalanine Flux Assay.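 Also: after compound treatment, cells received sepiapterin plus isotope-labelled Phenylalanine for 4 hours, then labelled Tyrosine in the medium was quantified, 10-point 2-fold dilution series run in duplicate.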 The note with it: A375 cells expressing human PAH R408W; 24 hrs compound incubation; 13C-Tyrosine by LC-MS; average where tested multiple times; read-out: AC50.
For orientation: AC50 means the midpoint of the concentration-response curve, whichever way the signal moves. With `c1cc(C2CC2)c2cc([C@H]3c4nc[nH]c4CCN3c3cnccn3)nn2c1` [Example 2224, (R)-4-(4-cyclopropylpyrazolo[1,5-a]pyridin-2-yl)-5-(pyrazin-2-yl)-4,5,6,7-tetrahydro-1H-imidazo[4,5-c]pyridine], the AC50 lay in the range of 1000 to 5000 nM.
For `c1cc(C2CC2)c2cc([C@@H]3c4nc[nH]c4CCN3c3cnccn3)nn2c1` [Example 2225, (S)-4-(4-cyclopropylpyrazolo[1,5-a]pyridin-2-yl)-5-(pyrazin-2-yl)-4,5,6,7-tetrahydro-1H-imidazo[4,5-c]pyridine] the value was less than 500 nM; for `CC(C)c1cccn2nc([C@@H]3c4nc[nH]c4CCN3c3nnc(C(C)(F)F)o3)cc12` [Example 2231, (S)-2-(1,1-difluoroethyl)-5-(4-(4-isopropylpyrazolo[1,5-a]pyridin-2-yl)-1,4,6,7-tetrahydro-5H-imidazo[4,5-c]pyridin-5-yl)-1,3,4-oxadiazole], less than 500 nM.
For `Cc1ncccc1-c1nnc(N2CCc3[nH]cnc3[C@H]2c2cc3c(C(C)C)cccn3n2)o1` [Example 2234, (S)-2-(4-(4-isopropylpyrazolo[1,5-a]pyridin-2-yl)-1,4,6,7-tetrahydro-5H-imidazo[4,5-c]pyridin-5-yl)-5-(2-methylpyridin-3-yl)-1,3,4-oxadiazole], the AC50 was 500 to 1000 nM.
Regarding `Cc1ncccc1-c1nnc(N2CCc3[nH]cnc3[C@@H]2c2cc3c(C(C)C)cccn3n2)o1` [Example 2235, (R)-2-(4-(4-isopropylpyrazolo[1,5-a]pyridin-2-yl)-1,4,6,7-tetrahydro-5H-imidazo[4,5-c]pyridin-5-yl)-5-(2-methylpyridin-3-yl)-1,3,4-oxadiazole], the AC50 is more than 5000 nM.
As to `Cc1ncccc1-c1nnc(N2CCc3[nH]cnc3[C@H]2c2cc3c(Cl)cccn3n2)o1` [Example 2236, (S)-2-(4-(4-chloropyrazolo[1,5-a]pyridin-2-yl)-1,4,6,7-tetrahydro-5H-imidazo[4,5-c]pyridin-5-yl)-5-(2-methylpyridin-3-yl)-1,3,4-oxadiazole], the AC50 is less than 500 nM.
Regarding `c1ccc(N2CCc3[nH]cnc3[C@@H]2c2cc3ccccn3n2)cc1` [Example 2238, (R)-5-phenyl-4-(pyrazolo[1,5-a]pyridin-2-yl)-4,5,6,7-tetrahydro-1H-imidazo[4,5-c]pyridine], the AC50 lay within 1000 to 5000 nM.
For `c1ccc(N2CCc3[nH]cnc3[C@H]2c2cc3ccccn3n2)cc1` [Example 2239, (S)-5-phenyl-4-(pyrazolo[1,5-a]pyridin-2-yl)-4,5,6,7-tetrahydro-1H-imidazo[4,5-c]pyridine], the AC50 is less than 500 nM.
For `Cc1cccn2nc([C@@H]3c4nc[nH]c4CCN3C(=O)c3cnc(-c4cnccn4)o3)cc12` [Example 2240, (S)-(4-(4-methylpyrazolo[1,5-a]pyridin-2-yl)-1,4,6,7-tetrahydro-5H-imidazo[4,5-c]pyridin-5-yl)(2-(pyrazin-2-yl)oxazol-5-yl)methanone] the value was 500 to 1000 nM; for `Cc1cccn2nc([C@H]3c4nc[nH]c4CCN3C(=O)c3cnc(-c4cnccn4)o3)cc12` [Example 2241, (R)-(4-(4-methylpyrazolo[1,5-a]pyridin-2-yl)-1,4,6,7-tetrahydro-5H-imidazo[4,5-c]pyridin-5-yl)(2-(pyrazin-2-yl)oxazol-5-yl)methanone], more than 5000 nM; for `O=C(c1cnc(-c2cnccn2)o1)N1CCc2[nH]cnc2[C@H]1c1cc2c(C(F)(F)F)cccn2n1` [Example 2244, (S)-(2-(pyrazin-2-yl)oxazol-5-yl)(4-(4-(trifluoromethyl)pyrazolo[1,5-a]pyridin-2-yl)-1,4,6,7-tetrahydro-5H-imidazo[4,5-c]pyridin-5-yl)methanone], 500 to 1000 nM.
For `O=C(c1cnc(-c2cnccn2)o1)N1CCc2[nH]cnc2[C@@H]1c1cc2c(C(F)(F)F)cccn2n1` [Example 2245, (R)-(2-(pyrazin-2-yl)oxazol-5-yl)(4-(4-(trifluoromethyl)pyrazolo[1,5-a]pyridin-2-yl)-1,4,6,7-tetrahydro-5H-imidazo[4,5-c]pyridin-5-yl)methanone] the value was more than 5000 nM.
For `COc1cccn2nc([C@H]3c4nc[nH]c4CCN3c3ccc(C(F)(F)F)cn3)cc12` [Example 2246, (R)-4-(4-methoxypyrazolo[1,5-a]pyridin-2-yl)-5-(5-(trifluoromethyl)pyridin-2-yl)-4,5,6,7-tetrahydro-1H-imidazo[4,5-c]pyridine] the value was more than 5000 nM; for `COc1cccn2nc([C@@H]3c4nc[nH]c4CCN3c3ccc(C(F)(F)F)cn3)cc12` [Example 2247, (S)-4-(4-methoxypyrazolo[1,5-a]pyridin-2-yl)-5-(5-(trifluoromethyl)pyridin-2-yl)-4,5,6,7-tetrahydro-1H-imidazo[4,5-c]pyridine], less than 500 nM; for `Cc1nnc(N2CCc3[nH]cnc3[C@H]2c2cc3c(OC(F)(F)F)cccn3n2)o1` [Example 2249, (S)-2-methyl-5-(4-(4-(trifluoromethoxy)pyrazolo[1,5-a]pyridin-2-yl)-1,4,6,7-tetrahydro-5H-imidazo[4,5-c]pyridin-5-yl)-1,3,4-oxadiazole], less than 500 nM.
Take `FC(F)(F)Oc1cccn2nc([C@@H]3c4nc[nH]c4CCN3c3nnc(C(F)(F)F)o3)cc12` [Example 2253, (S)-2-(4-(4-(trifluoromethoxy)pyrazolo[1,5-a]pyridin-2-yl)-1,4,6,7-tetrahydro-5H-imidazo[4,5-c]pyridin-5-yl)-5-(trifluoromethyl)-1,3,4-oxadiazole]: the AC50 is less than 500 nM.
With `FC(F)Oc1cccn2nc([C@@H]3c4nc[nH]c4CCN3c3ncccn3)cc12` [Example 2254, (S)-4-(4-(difluoromethoxy)pyrazolo[1,5-a]pyridin-2-yl)-5-(pyrimidin-2-yl)-4,5,6,7-tetrahydro-1H-imidazo[4,5-c]pyridine], the AC50 was less than 500 nM.
On to `FC(F)Oc1cccn2nc([C@H]3c4nc[nH]c4CCN3c3ncccn3)cc12` [Example 2255, (R)-4-(4-(difluoromethoxy)pyrazolo[1,5-a]pyridin-2-yl)-5-(pyrimidin-2-yl)-4,5,6,7-tetrahydro-1H-imidazo[4,5-c]pyridine], for which the AC50 lay within 1000 to 5000 nM.
The value for `FC(F)Oc1cccn2nc([C@@H]3c4nc[nH]c4CCN3c3ncc(C(F)(F)F)cn3)cc12` [Example 2256, (S)-4-(4-(difluoromethoxy)pyrazolo[1,5-a]pyridin-2-yl)-5-(5-(trifluoromethyl)pyrimidin-2-yl)-4,5,6,7-tetrahydro-1H-imidazo[4,5-c]pyridine] was less than 500 nM; that for `FC(F)Oc1cccn2nc([C@H]3c4nc[nH]c4CCN3c3ncc(C(F)(F)F)cn3)cc12` [Example 2257, (R)-4-(4-(difluoromethoxy)pyrazolo[1,5-a]pyridin-2-yl)-5-(5-(trifluoromethyl)pyrimidin-2-yl)-4,5,6,7-tetrahydro-1H-imidazo[4,5-c]pyridine] was more than 5000 nM.
Regarding `CC1(c2nnc(N3CCc4[nH]cnc4[C@H]3c3cc4c(Cl)cccn4n3)o2)CC1` [Example 2259, (S)-2-(4-(4-chloropyrazolo[1,5-a]pyridin-2-yl)-1,4,6,7-tetrahydro-5H-imidazo[4,5-c]pyridin-5-yl)-5-(1-methylcyclopropyl)-1,3,4-oxadiazole], the AC50 was in the range of 500 to 1000 nM.

The record behind these values is patent US20230365592A1 (Agios Pharmaceuticals, Inc., priority 2022, published 2023).
